Each structure is given as a SMILES string.

These results are taken from ChEMBL document CHEMBL4043158, “Synthesis and carbonic anhydrase inhibition of polycyclic imides incorporating N-benzenesulfonamide moieties” (Bioorg Med Chem, 2017).

For the experiment, the target named is Carbonic anhydrase 9 (Homo sapiens, UniProt Q16790). Briefly: Inhibition of human CA9 pre-incubated for 10 mins by stopped-flow CO2 hydrase assay.
By Ki is commonly meant a measure of affinity in units of concentration, obtained from inhibition or displacement. A low value points to higher affinity. `NS(=O)(=O)c1ccc(CN2C(=O)c3cccc4cccc(c34)C2=O)cc1`: affinity was put at a Ki of 108 nM.
In turn, `NS(=O)(=O)c1ccc(N2C(=O)c3cccc4cccc(c34)C2=O)cc1` came in with a Ki of 287 nM.
Then `NS(=O)(=O)c1ccc(CCN2C(=O)c3cccc4cc([N+](=O)[O-])cc(c34)C2=O)cc1`, with 242 nM; and `NS(=O)(=O)c1ccc(CN2C(=O)c3cccc4cc([N+](=O)[O-])cc(c34)C2=O)cc1`, with 251 nM.
In turn, `NS(=O)(=O)c1ccc(CCn2c(=O)c3cc4c(=O)n(CCc5ccc(S(N)(=O)=O)cc5)c(=O)c4cc3c2=O)cc1` yielded a Ki of 2050 nM.
Then `NS(=O)(=O)c1ccc(N2C(=O)c3cccc4cc([N+](=O)[O-])cc(c34)C2=O)cc1`, with 218 nM; and `NS(=O)(=O)c1ccc(-n2c(=O)c3ccccc3c3ccccc3c2=O)cc1`, with 93.1 nM; and `NS(=O)(=O)CCN1C(=O)c2ccc3c4c(ccc(c24)C1=O)C(=O)N(CCc1ccc(S(N)(=O)=O)cc1)C3=O`, with 25.5 nM.
For `NS(=O)(=O)c1ccc(-n2c(=O)c3cc4c(=O)n(-c5ccc(S(N)(=O)=O)cc5)c(=O)c4cc3c2=O)cc1` the value was 251 nM.
On to `NS(=O)(=O)c1ccc(N2C(=O)c3ccc4c5c(ccc(c35)C2=O)C(=O)N(c2ccc(S(N)(=O)=O)cc2)C4=O)cc1`, for which the Ki was determined as 23.9 nM.
For `NS(=O)(=O)c1ccc(Cn2c(=O)c3cc4c(=O)n(Cc5ccc(S(N)(=O)=O)cc5)c(=O)c4cc3c2=O)cc1` the value was 639 nM; for `NS(=O)(=O)c1ccc(CN2C(=O)c3ccc4c5c(ccc(c35)C2=O)C(=O)N(Cc2ccc(S(N)(=O)=O)cc2)C4=O)cc1`, 2780 nM.
Turning to `NS(=O)(=O)c1ccc(CCN2C(=O)c3cccc4cccc(c34)C2=O)cc1`, the Ki was determined as 108 nM.
Then `NS(=O)(=O)c1ccc(CCn2c(=O)c3ccccc3c3ccccc3c2=O)cc1`, with 301 nM; and `NS(=O)(=O)c1ccc(Cn2c(=O)c3ccccc3c3ccccc3c2=O)cc1`, with 191 nM.
